Measurements reported in PubChem BioAssay AID1949 (Southern Research Institute, 2009).
≈ marks a conversion by molar mass, not a printed value. Results filed as inconclusive are left out. Calls of active or inactive are those of the source. How the calls were made is not given here.

tested on: M. tuberculosis H37Rv growth inhibition; test: Confirmatory growth inhibition assay against Mycobacterium tuberculosis H37Rv, potency (AID 1949);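 further: bacteria grown 7 days with compound before Alamar blue readout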

Compound | IC50
COc1ccccc1-c1c(C)oc2cc(OCC(=O)OCc3ccccc3)ccc2c1=O | 0.36 µg/mL (≈ 0.836 µM)
COc1ccc(OCc2nn3c(-c4ccc(C(C)(C)C)cc4)nnc3s2)cc1 | > 50 µg/mL (inactive)
Cc1ccc2c(c1)c(-c1ccccc1)c(-c1ccccc1)n2CC(O)CN1CCN(CCO)CC1 (configuration not stated) | 1.84 µg/mL (≈ 3.92 µM)
CC(C)(C)OC(=O)CS(=O)c1ccc(S(=O)(=O)C(F)(F)F)cc1[N+](=O)[O-] (configuration not stated) | 2.14 µg/mL (≈ 5.13 µM)
COC(=O)c1ccc(NC(=O)COc2ccc(-c3ccc(C#N)cc3)cc2)cc1 | 0.41 µg/mL (≈ 1.06 µM)
CSc1cccc(NC(=O)C2CCN(C(=O)c3ccc(-c4ccccc4)cc3)CC2)c1 | 5.73 µg/mL (≈ 13.3 µM)
Cc1ccc(C(=O)Nc2ccc(N3CCCC3)c(Cl)c2)c(C)c1 | 6.72 µg/mL (≈ 20.4 µM)
CCN(CC)c1ccc(-n2nc3cc(C)c(N)cc3n2)c(C)c1 | 13.1 µg/mL (≈ 42.3 µM)
COc1ccc(Nc2cc(C)nc3c2ccc2ccccc23)cc1 | 1.62 µg/mL (≈ 5.15 µM)
CN(C)c1ccc(Nc2nc(-c3ccccn3)cs2)cc1 | 0.74 µg/mL (≈ 2.5 µM)
CCOC(=O)Cc1ccc2c(=O)c(Oc3ccc(F)cc3)coc2c1 | 33 µg/mL (≈ 96.3 µM)
CC1CCN(c2nc(-c3cccnc3)nc3ccccc23)CC1 | > 50 µg/mL (inactive)
Cc1cc(OCCCCn2ccnc2)ccc1C(C)C | 2.57 µg/mL (≈ 9.43 µM)
Cc1ccc(-c2nc(C#N)c(NCCCn3ccnc3)o2)cc1 | > 50 µg/mL (inactive)
CC(=O)c1ccc(NCCC(=O)c2ccco2)cc1 | 2.8 µg/mL (≈ 10.9 µM)
CC(=O)c1ccc(OC(=O)c2sc3ccccc3c2Cl)cc1 | > 50 µg/mL (inactive)
COc1ccc(-n2nc3ccc(NC(=O)c4ncn[nH]4)cc3n2)cc1Cl | > 50 µg/mL (inactive)
O=C(Oc1ccc(Cl)cc1)c1ccc(S(=O)(=O)c2ccc(Cl)cc2)cc1 | 1.02 µg/mL (≈ 2.5 µM)
Cc1cc(OCCn2ccnc2)ccc1Cl | 2.77 µg/mL (≈ 11.7 µM)
C=CCc1cc(Cl)ccc1OCCCNCCCC | 5.34 µg/mL (≈ 18.9 µM)
c1ccc(CNCCCOc2cccc3ccccc23)cc1 | 4.89 µg/mL (≈ 16.8 µM)
CC(=O)Nc1ccc2cccc(O)c2n1 | 0.96 µg/mL (≈ 4.75 µM)
CCOC(=O)C1=C(c2ccc(OC)cc2)C(=O)c2ccccc2C1=O | 6.6 µg/mL (≈ 19.6 µM)
CCCc1ccc(OC(=O)c2ccc(OC)c(OC)c2)cc1 | 2.37 µg/mL (≈ 7.89 µM)

Compound | IC50
COc1ccc(-c2nnc(SCC(=O)Nc3ccc([N+](=O)[O-])cc3)o2)cc1 | 0.64 µg/mL (≈ 1.66 µM)
CCOC(=O)CSC1=C(C#N)C(c2ccccc2[N+](=O)[O-])C(C(C)=O)=C(C)N1 (configuration not stated) | 1.41 µg/mL (≈ 3.51 µM)
COc1ccc2nc(/C(C#N)=C\c3ccc(SC)cc3)[nH]c2c1 | 7.56 µg/mL (≈ 23.5 µM)
CC(C)(C)c1cc(Cl)ccc1OCCn1ccnc1 | 1.94 µg/mL (≈ 6.96 µM)
Cc1ccccc1NC(=O)C(Cc1ccccc1)NC(=O)c1ccccc1 (configuration not stated) | 37.5 µg/mL (≈ 105 µM)
CC(=O)Nc1nc2ccccc2n1CCOc1ccccc1 | 2.94 µg/mL (≈ 9.95 µM)
COc1cccc(N2CCN(Cc3nc(N)nc(Nc4ccc(C)c(Cl)c4)n3)CC2)c1 | 1.45 µg/mL (≈ 3.3 µM)
CC12CC3CC(C)(C1)CC(CNCc1ccccc1O)(C3)C2 | 2.89 µg/mL (≈ 9.65 µM)
CCOC(=O)c1c(NC(=O)c2c(F)c(F)c(F)c(F)c2F)sc(C(N)=O)c1C | < 0.1 µg/mL
Cc1cc(C(C)(C)C)ccc1OCCCCn1ccnc1 | 1.4 µg/mL (≈ 4.89 µM)
O=C(Cc1ccccc1)NC(=S)Nc1ccc(Oc2ccccc2)cc1 | 7.61 µg/mL (≈ 21 µM)
CCOC(=O)c1ccc2nc(C)cc(Nc3ccc(N4CCCCC4)cc3)c2c1 | 2.41 µg/mL (≈ 6.19 µM)
OC(CN1CCCCCC1)CN1c2ccccc2Sc2ccccc21 (configuration not stated) | 9.1 µg/mL (≈ 25.7 µM)
CCCCc1ccc2nc(NC(=O)c3cccs3)sc2c1 | 6.52 µg/mL (≈ 20.6 µM)
COC(=O)c1c(C)cc(=O)n2c1[nH]c1ccccc12 | 3.52 µg/mL (≈ 13.7 µM)
CCSCC(=O)N1CCN(c2nnc(-c3ccccc3)c3ccccc23)CC1 | 14.5 µg/mL (≈ 36.9 µM)
N#Cc1ccc(NC(=O)Nc2ccc(Cl)cc2)cc1 | 0.51 µg/mL (≈ 1.88 µM)
Cc1ccc(C)c(NC(=O)c2ccc(-c3ccccc3Cl)o2)c1 | 12.9 µg/mL (≈ 39.7 µM)
CCCn1c(CNc2ccccc2O)nc2ccccc21 | 0.34 µg/mL (≈ 1.21 µM)
S=C(NCCCN1CCN(c2ccc(Cl)cc2)CC1)Nc1cccc(Cl)c1 | 3 µg/mL (≈ 7.09 µM)
CC12CC3CC(C)(C1)CC(C(=O)NC1=NCCS1)(C3)C2 | 13 µg/mL (≈ 44.3 µM)
O=C(Nc1ccc(F)cc1)NC1CCCCCCC1 | 2.53 µg/mL (≈ 9.57 µM)
Cc1cc(C)cc(OCC(=O)c2ccc(Br)cc2)c1 | 6.8 µg/mL (≈ 21.3 µM)
Cc1ccc(NC(=S)c2ccccn2)c(C)c1 | 4.22 µg/mL (≈ 17.4 µM)

Compound | IC50
Cc1ccc(NC(=O)C(=O)NNC(=O)c2ccco2)cc1Cl | 1.41 µg/mL (≈ 4.38 µM)
S=C(NCCc1c[nH]c2ccccc12)Nc1ccc(Nc2ccccc2)cc1 | 2.81 µg/mL (≈ 7.27 µM)
CN=c1c([N+](=O)[O-])nn(-c2ccccc2)n1O | > 50 µg/mL (inactive)
COC(=O)C(C)Oc1ccc2c(=O)c(Oc3ccc(OC)cc3)coc2c1 (configuration not stated) | 5.99 µg/mL (≈ 16.2 µM)
CC(C)OC(=O)C(C)Oc1ccc2c(-c3ccccc3)cc(=O)oc2c1 (configuration not stated) | 1.63 µg/mL (≈ 4.63 µM)
CC(NC(=O)NNC(=O)c1ccncc1)(C(F)(F)F)C(F)(F)F | 0.18 µg/mL (≈ 0.523 µM)
CCOC(=O)COc1ccc(-c2ccc(C)cc2)cc1 | 0.33 µg/mL (≈ 1.22 µM)
c1ccc(CCNc2nc(-c3ccccn3)cs2)cc1 | 0.4 µg/mL (≈ 1.42 µM)
CCc1nc2ccccc2n1CCCOc1ccccc1 | 0.5 µg/mL (≈ 1.78 µM)
COc1ccc(C(=O)c2ccc(N3CCN(C)CC3)c([N+](=O)[O-])c2)c2ccccc12 | 5.57 µg/mL (≈ 13.7 µM)
N#Cc1ccc(NC(=O)CSc2ccc(Cl)cc2)cc1 | 2.94 µg/mL (≈ 9.71 µM)
CCN(CC)CCn1c(=N)n(CC(O)COc2ccc(Cl)cc2Cl)c2ccccc21 (configuration not stated) | 1.38 µg/mL (≈ 3.06 µM)
CC(C)OC(=O)COc1ccc(C(=O)NCc2ccccc2)cc1 | 0.91 µg/mL (≈ 2.78 µM)
CN1CCC(O)(c2cccs2)C(C(=O)c2cccs2)C1 (configuration not stated) | 1.54 µg/mL (≈ 5.01 µM)
CCOC(=O)COc1ccc2c(=O)c(-c3ccc(F)cc3)coc2c1 | 21.3 µg/mL (≈ 62.3 µM)
OCc1cn(-c2ccccc2)nc1-c1ccc2ccccc2c1 | 4.25 µg/mL (≈ 14.1 µM)
CC(=O)N1CCN(c2ccc(NC(=S)NC(=O)c3cc4ccccc4o3)cc2)CC1 | 2.74 µg/mL (≈ 6.49 µM)
COc1ccccc1C(=O)Nc1ccc2oc(-c3cccc(Cl)c3)nc2c1 | > 50 µg/mL (inactive)
Clc1ccc(CN2CCN(c3ncnc4scc(-c5cccs5)c34)CC2)cc1 | 20.5 µg/mL (≈ 48.1 µM)
CCCC(=O)N1CCN(c2ccc(NC(=O)c3ccc(-c4ccc(Cl)cc4)o3)cc2Cl)CC1 | 1.4 µg/mL (≈ 2.88 µM)
O=C(OCc1ccccc1Cl)C1(O)c2ccccc2-c2ccccc21 | 2.76 µg/mL (≈ 7.87 µM)
COc1ccc(C(=O)C(CN2CCCCC2)c2ccccc2)cc1 (configuration not stated) | 3.15 µg/mL (≈ 9.74 µM)
O=C(/C=C\c1ccccc1)Nc1cccc(-c2nc3ccccc3[nH]2)c1 | 7.66 µg/mL (≈ 22.6 µM)
CCn1cc(C(=O)O)c(=O)c2cc(F)c(N3CCN(C(=S)Nc4cc(C(F)(F)F)ccc4Cl)CC3)cc21 | 2.99 µg/mL (≈ 5.37 µM)

Compound | IC50
Cc1cccc(C(C)(C)C)c1OCCn1ccnc1 | 8.23 µg/mL (≈ 31.9 µM)
CCCC(=O)N1CCN(c2ccc(NC(=O)COc3ccc(C(C)CC)cc3)cc2Cl)CC1 (configuration not stated) | 11.3 µg/mL (≈ 24 µM)
COc1ccc(OCC(=O)NNC(=S)NC(=O)C(C)(C)C)cc1 | 0.13 µg/mL (≈ 0.383 µM)
CCOC(=O)Cn1cc(/C=C(/C#N)c2nc3ccc(OC)cc3[nH]2)c2ccccc21 | 0.74 µg/mL (≈ 1.85 µM)
Cc1cc2ncn(CC(O)COc3ccc(C(C)C)cc3)c2cc1C (configuration not stated) | 5.42 µg/mL (≈ 16 µM)
NC(=O)c1c(NC(=O)c2c(F)c(F)c(F)c(F)c2F)sc2c1CCC2 | 2.77 µg/mL (≈ 7.36 µM)
CCOc1ccc(C(=O)NC(=S)Nc2ccc(CN3CCOCC3)cc2)cc1Cl | 15.7 µg/mL (≈ 36.2 µM)
CC(C)(C)c1ccc(OCCn2c(N)nc3ccccc32)cc1 | 1.61 µg/mL (≈ 5.2 µM)
Cc1ccc(OCC(=O)c2ccc(F)cc2)cc1C | 2.46 µg/mL (≈ 9.52 µM)
CCCc1ccc(OCC(=O)Nc2ccc(F)cc2)cc1 | 0.85 µg/mL (≈ 2.96 µM)
CS(=O)(=O)c1ncc(Cl)c(C(=O)Nc2cc(C(F)(F)F)ccc2Cl)n1 | 17.1 µg/mL (≈ 41.3 µM)
COC(=O)COc1ccc(CSCC(=O)Nc2ccc3ccccc3c2)cc1 | 0.44 µg/mL (≈ 1.11 µM)
Cc1ccc(Cl)cc1N1CCN(CC(O)COc2ccc(Cl)cc2Cl)CC1 (configuration not stated) | 6.67 µg/mL (≈ 15.5 µM)
Cc1[nH]n(-c2ccccc2)c(=S)c1C=Nc1ccccc1O | 2.35 µg/mL (≈ 7.6 µM)
CCOc1ccc(NCCC(=O)c2cccs2)cc1 | 0.86 µg/mL (≈ 3.12 µM)
Cc1cc(C)cc(C(=O)NC(=S)Nc2cc([N+](=O)[O-])ccc2O)c1 | 0.4 µg/mL (≈ 1.16 µM)
COC(=O)c1sc2nc(-c3ccccc3)nc(N3CCN(C)CC3)c2c1C | > 50 µg/mL (inactive)
Cc1cccc(NC(=O)c2cc3cc([N+](=O)[O-])ccc3oc2=O)c1 | > 50 µg/mL (inactive)
N#Cc1cc2c(nc1SCC(=O)OCc1ccccc1)CCC2 | 0.41 µg/mL (≈ 1.26 µM)
Cc1cc2c(cc1C)N(Cc1ccc(C(C)(C)C)cc1)C1=NCCCN12 | 1.2 µg/mL (≈ 3.45 µM)
COC(=O)c1ccc(OCC(=O)c2ccc(F)cc2)cc1 | > 50 µg/mL (inactive)
COc1ccc(CNC(=O)c2c(N)nc3sc4c(c3c2C(F)(F)F)CCC4)cc1 | 0.31 µg/mL (≈ 0.736 µM)
Cc1ccc([N+](=O)[O-])cc1NC(=O)Nc1cccc(Cl)c1 | 0.21 µg/mL (≈ 0.687 µM)
CC(=O)c1cccc(Nc2cc(C)nc3c2ccc2ccccc23)c1 | 3.1 µg/mL (≈ 9.5 µM)

Compound | IC50
N#CC1=C(SCC(=O)Nc2ccccc2[N+](=O)[O-])NC(=O)CC1c1ccc(F)cc1 (configuration not stated) | 6.76 µg/mL (≈ 15.9 µM)
Cc1ccc(C(=O)NC(=S)Nc2cccc(NC(=O)c3cccs3)c2)c(C)c1 | 6.96 µg/mL (≈ 17 µM)
c1ccc2c(C(c3ccncc3)c3c[nH]c4ccccc34)c[nH]c2c1 | 12.2 µg/mL (≈ 37.8 µM)
CC(C)(C)c1ccc(Cn2cnc([N+](=O)[O-])n2)cc1 | < 0.1 µg/mL
N#Cc1ccc(-c2nc(-c3ccccc3)c(-c3cccs3)[nH]2)cc1 | 5.89 µg/mL (≈ 18 µM)
CC(=O)C1=C(C)NC(SCC(=O)Nc2nc3ccccc3s2)=C(C#N)C1c1ccc(Cl)cc1 (configuration not stated) | 4.1 µg/mL (≈ 8.28 µM)
COc1ccc(-c2cc(C(=O)N/N=C/C=C/c3ccccc3OC)[nH]n2)cc1 | < 0.1 µg/mL
CCOC(=O)COc1ccc2c(=O)c(Oc3ccc(F)cc3)c(C)oc2c1 | 1.51 µg/mL (≈ 4.06 µM)
O=S(=O)(Nc1cccc2cccnc12)c1ccc(Br)cc1 | 0.4 µg/mL (≈ 1.1 µM)
COc1cccc2cc(C(=O)Oc3ccc(Cl)cc3)c(=O)oc12 | > 50 µg/mL (inactive)
O=c1oc(-c2ccccc2F)nc2sc3c(c12)CCCC3 | > 50 µg/mL (inactive)
COc1ccccc1C1=Nc2cccc3cccc(c23)N1 | 0.24 µg/mL (≈ 0.875 µM)
COc1cccc(NC(=S)NC(=O)CC(C)(C)C)c1 | 13.4 µg/mL (≈ 47.9 µM)
CCOc1ccccc1NC(=O)CSc1nc2ccc(NC(=O)c3ccccc3Cl)cc2s1 | 1.25 µg/mL (≈ 2.51 µM)
O=[N+]([O-])c1nn(-c2ccccc2)[n+]([O-])c1N1CCCC1 | 11.9 µg/mL (≈ 43.1 µM)
O=C(CC(Nc1ccc(F)cc1)c1ccccc1)c1ccccc1 (configuration not stated) | 9.26 µg/mL (≈ 29 µM)
Cc1ccc2nc(-c3ccc(N/C(N)=N\c4nc(C)cc(C)n4)cc3)sc2c1 | 25.7 µg/mL (≈ 66.2 µM)
CCOC(=O)c1c(NC(=O)CNC(C)CC)sc2c1CCCC2 (configuration not stated) | 17.4 µg/mL (≈ 51.4 µM)
O=C1NN=C2C1=NC1(CCCCC1)Cc1ccccc12 | 0.1 µg/mL (≈ 0.374 µM)
CCOC(=O)C(Oc1ccc2oc(C)c(C(=O)OC)c2c1)c1ccccc1 (configuration not stated) | 2.95 µg/mL (≈ 8.01 µM)
CC(C)OC(=O)COc1ccc2c(=O)c(Oc3ccccc3Br)coc2c1 | 13.9 µg/mL (≈ 32.1 µM)
